Broadly, the IC50 is the concentration at which inhibition is half-maximal.

The target in one experiment is DGKζ (Homo sapiens (Human), UniProt Q13574). In words: Biochemical DGK IC50 assay (ADP-Glo, lipid micelle substrate), DGKζ. The conditions noted are these: full length DGKζ 0.5 nM, ATP 140 μM, DAG 80 μM. As for the experimental part:
(§1) Enzymatic reactions of DGKζ, DGKα and DGKδ were performed using ADP-Glo assay with lipid micelle substrate. […] Full length DGKα (D21-10BG, SignalChem) and full length DGKδ (D23-10G, SignalChem) were purchased. Lipid micelle was prepared by dissolving DAG (Sigma, 317505-10MG) and PS (Sigma, P7769-100MG) with chloroform which was furtherly removed by rotary evaporation. The resulted product was resuspended in buffer containing 25 mM HEPES pH 7.0, 0.5 mM EDTA and 160 mM Octyl β-D glucopyranoside by vigorous mixing and ultrasonic (IID, Scientz).
(§2) The inhibition activities testing for the compound disclosed herein were carried out at room temperature in assay buffer containing 50 mM HEPES, 10 mM MgCl2, 0.01% BSA, 0.1 mM Na3VO4, 0.005% Tween-20 and 0.01 mM CaCl2. Compounds in DMSO were dispensed into wells of a black 384 well plate (Corning 4514) using D300e digital dispenser (Tecan). […] 3 μL 2× enzyme solution was added to wells. […] After 1 hour reaction, 5 μL ADP-Glo reagent (Promga V9101) was added and incubated for 40 minutes. 10 μL Kinase Detection reagent was added and incubated for 30 minutes. Luminescence was measured on a microplate reader (PHERAstar FSX, BMG labtech). The IC50s are calculated based on inhibition of enzyme activity in the presence of increasing concentrations of compounds.
Human His-TEV-DGK-zeta-pFastBac1 and human baculovirus samples was generated using the Bac-to-Bac baculovirus expression system (Invitrogen) according to the manufacturer's protocol. The DNA used for expression of DGK-zeta, have SEQ ID Nos: 1. Baculovirus amplification was achieved using infected SF9 cells at 1:2000 virus/cells ratios, and grown for 96 hours at 27° C. post-transfected.
Full length human DGKζ produced as described above, was purified from Sf9 baculovirus-infected insect cell paste. The cells were lysed using sonication method, and the lysates were clarified by centrifugation.
On the technique in general: ADP-Glo turns the ADP formed in a reaction into a luminescent signal.

In another experiment the target is DGKα (Homo sapiens (Human), UniProt P23743). The experiment in a line: Biochemical DGK IC50 assay (ADP-Glo, lipid micelle substrate), DGKα. Note: full length DGKα 7.5 nM. The conditions noted are these: full length DGKα […], ATP 140 μM, DAG 80 μM. Here is the method: as §1, §2
DGKα, sequence (P23743 whole entry): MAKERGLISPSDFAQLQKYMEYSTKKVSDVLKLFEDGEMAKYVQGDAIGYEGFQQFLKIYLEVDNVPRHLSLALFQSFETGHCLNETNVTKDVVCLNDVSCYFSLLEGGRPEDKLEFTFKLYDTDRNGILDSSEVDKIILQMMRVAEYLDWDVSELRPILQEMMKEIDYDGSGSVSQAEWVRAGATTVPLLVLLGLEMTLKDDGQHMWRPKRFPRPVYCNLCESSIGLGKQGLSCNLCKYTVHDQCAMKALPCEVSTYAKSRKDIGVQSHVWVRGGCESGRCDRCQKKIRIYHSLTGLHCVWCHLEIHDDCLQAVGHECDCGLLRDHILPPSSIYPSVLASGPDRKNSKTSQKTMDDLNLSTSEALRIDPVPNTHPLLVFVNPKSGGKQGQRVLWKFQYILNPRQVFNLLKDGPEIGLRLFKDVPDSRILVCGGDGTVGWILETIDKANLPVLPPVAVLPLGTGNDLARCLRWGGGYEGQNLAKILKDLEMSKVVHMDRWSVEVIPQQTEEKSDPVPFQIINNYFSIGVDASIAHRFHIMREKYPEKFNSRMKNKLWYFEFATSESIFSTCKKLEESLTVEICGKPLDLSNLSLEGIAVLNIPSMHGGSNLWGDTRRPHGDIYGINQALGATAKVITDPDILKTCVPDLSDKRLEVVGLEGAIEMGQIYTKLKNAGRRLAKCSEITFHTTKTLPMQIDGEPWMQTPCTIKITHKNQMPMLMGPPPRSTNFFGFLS

DGKζ, sequence (Q13574 other isoform, or with tags, fused parts or gaps): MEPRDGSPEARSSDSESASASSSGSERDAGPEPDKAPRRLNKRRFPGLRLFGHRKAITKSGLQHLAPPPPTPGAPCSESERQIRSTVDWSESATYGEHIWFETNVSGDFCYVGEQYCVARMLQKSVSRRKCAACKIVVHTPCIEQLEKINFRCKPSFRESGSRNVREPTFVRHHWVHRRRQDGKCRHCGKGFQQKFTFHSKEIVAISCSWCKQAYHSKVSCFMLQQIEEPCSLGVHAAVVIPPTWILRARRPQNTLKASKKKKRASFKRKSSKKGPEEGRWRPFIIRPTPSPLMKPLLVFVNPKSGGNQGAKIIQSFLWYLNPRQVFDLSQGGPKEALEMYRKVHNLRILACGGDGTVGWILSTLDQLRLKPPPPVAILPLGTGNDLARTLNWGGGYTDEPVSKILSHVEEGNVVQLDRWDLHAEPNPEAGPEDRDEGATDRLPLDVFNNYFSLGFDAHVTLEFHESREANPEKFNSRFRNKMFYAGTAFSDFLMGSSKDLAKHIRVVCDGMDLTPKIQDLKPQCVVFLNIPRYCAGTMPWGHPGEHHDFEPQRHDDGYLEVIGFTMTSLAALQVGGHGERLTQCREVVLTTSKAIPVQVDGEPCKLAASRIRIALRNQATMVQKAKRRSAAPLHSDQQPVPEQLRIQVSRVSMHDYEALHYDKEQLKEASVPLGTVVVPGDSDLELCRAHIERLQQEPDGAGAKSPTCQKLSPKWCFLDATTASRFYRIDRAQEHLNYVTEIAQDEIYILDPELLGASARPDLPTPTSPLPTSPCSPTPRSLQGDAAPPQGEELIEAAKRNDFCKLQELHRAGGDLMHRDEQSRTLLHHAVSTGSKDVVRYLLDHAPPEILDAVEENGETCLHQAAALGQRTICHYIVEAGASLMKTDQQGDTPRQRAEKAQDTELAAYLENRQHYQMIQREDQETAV

In the case of `CC[C@H]1CN(C(C)c2ccn3ncc(F)c3n2)[C@H](CC)CN1c1nc(=O)n(C)c2cc(CC#N)nn12` (stereo partly drawn) [Compound A50, 2-(4-((2S,5R)-2,5-diethyl-4-(1-(3-fluoropyrazolo[1,5-a]pyrimidin-5-yl)ethyl)piperazin-1-yl)-1-methyl-2-oxo-1,2-dihydropyrazolo[1,5-a][1,3,5]triazin-7-yl)acetonitrile], the results for the IC50 at DGKζ and against DGKα were 38 nM and 55 nM, respectively.

As for `CC[C@H]1CN(C(C)c2ccn3nc(C)cc3c2)[C@H](CC)CN1c1nc(=O)n(C)c2cc(CC#N)nn12` (stereo partly drawn) [Compound A55, 2-(4-((2S,5R)-2,5-diethyl-4-(1-(2-methylpyrazolo[1,5-a]pyridin-5-yl)ethyl)piperazin-1-yl)-1-methyl-2-oxo-1,2-dihydropyrazolo[1,5-a][1,3,5]triazin-7-yl)acetonitrile], the IC50 worked out at 53 nM at DGKζ and 150 nM on DGKα.

As for `CC[C@H]1CN(C(C)c2ccn3nc(F)cc3n2)[C@H](CC)CN1c1nc(=O)n(C)c2cc(CC#N)nn12` (stereo partly drawn) [Compound A56, 2-(4-((2S,5R)-2,5-diethyl-4-(1-(2-fluoropyrazolo[1,5-a]pyrimidin-5-yl)ethyl)piperazin-1-yl)-1-methyl-2-oxo-1,2-dihydropyrazolo[1,5-a][1,3,5]triazin-7-yl)acetonitrile], the results for the IC50 against DGKζ and against DGKα were 73 nM and 17 nM, respectively.

For the compound `CC[C@H]1CN(C(C)c2ccn3nc(Cl)cc3n2)[C@H](CC)CN1c1nc(=O)n(C)c2cc(CC#N)nn12` (stereo partly drawn) [Compound A58, 2-(4-((2S,5R)-4-(l-(2-chloropyrazolo[1,5-a]pyrimidin-5-yl)ethyl)-2,5-diethylpiperazin-1-yl)-1-methyl-2-oxo-1,2-dihydropyrazolo[1,5-a][1,3,5]triazin-7-yl)acetonitrile], the IC50 against DGKζ was determined as 42 nM; against DGKα, 15 nM.

For `CC[C@H]1CN(C(C)c2ccn3nc(Cl)c(F)c3n2)[C@H](CC)CN1c1nc(=O)n(C)c2cc(CC#N)nn12` (stereo partly drawn) [Compound A59, 2-(4-((2S,5R)-4-(1-(2-chloro-3-fluoropyrazolo[1,5-a]pyrimidin-5-yl)ethyl)-2,5-diethylpiperazin-1-yl)-1-methyl-2-oxo-1,2-dihydropyrazolo[1,5-a][1,3,5]triazin-7-yl)acetonitrile], the IC50 at DGKζ was 38 nM; against DGKα, 111 nM.

Take `CC[C@H]1CN(C(C)c2ccn3nc(F)c(F)c3n2)[C@H](CC)CN1c1nc(=O)n(C)c2cc(CC#N)nn12` (stereo partly drawn) [Compound A60, 2-(4-((2S,5R)-4-(1-(2,3-difluoropyrazolo[1,5-a]pyrimidin-5-yl)ethyl)-2,5-diethylpiperazin-1-yl)-1-methyl-2-oxo-1,2-dihydropyrazolo[1,5-a][1,3,5]triazin-7-yl)acetonitrile]: the values for the IC50 at DGKζ and against DGKα were 40 nM and 63 nM, respectively.

(Values after patent US20250353858A1, “CONDENSED HETEROCYCLIC COMPOUNDS AS INHIBITOR OF DIACYLGLYCEROL KINASES” (BEONE MEDICINES I GMBH, priority 2023, published 2025).)
